Laboratory results from ChEMBL document CHEMBL4130461, “New chemotype of selective and potent inhibitors of human delta 24-dehydrocholesterol reductase” (Eur J Med Chem, 2017).
Counter-ions that a name gives are not always drawn. Calls of active or inactive are those of the source. No cut-off for these calls is given here.

How the values were obtained:
HL-60 [1] = experiment: Induction of sterol accumulation in human HL60 cells assessed as desmosterol accumulation at 1 uM incubated for 24 hrs by GC-MS analysis; type: functional, cell-based
HL-60 [2] = experiment: Induction of sterol accumulation in human HL60 cells assessed as desmosterol accumulation at 50 uM incubated for 24 hrs by GC-MS analysis; type: functional, cell-based
HL-60 [3] = experiment: cells; details: Homo sapiens
Description: Cytotoxicity in human HL60 cells by MTT assay

HL-60 [4] = experiment: Cytotoxicity in human HL60 cells at 50 uM by MTT assay; type: cell-based; details: hl-60, 50 µM
HL-60 [5] = experiment: Intracellular drug accumulation in human HL60 cells at 10 uM incubated for 24 hrs by GC-MS analysis; type: ADME, cell-based; details: hl-60, 24 h
HL-60 [6] = experiment: Extracellular drug accumulation in human HL60 cells at 10 uM incubated for 24 hrs by GC-MS analysis; type: ADME, cell-based; details: hl-60, 24 h
HL-60 [7] = experiment: Induction of sterol accumulation in human HL60 cells at 1 uM incubated for 24 hrs by GC-MS analysis; type: functional, cell-based
HL-60 [8] = experiment: Induction of sterol accumulation in human HL60 cells at 0.1 uM incubated for 24 hrs by GC-MS analysis; type: functional, cell-based
HL-60 [9] = experiment: Induction of sterol accumulation in human HL60 cells assessed as lathosterol accumulation at 1 uM incubated for 24 hrs by GC-MS analysis; type: functional, cell-based
HL-60 [10] = experiment: Induction of sterol accumulation in human HL60 cells assessed as zymosterol accumulation at 50 uM incubated for 24 hrs by GC-MS analysis; type: functional, cell-based
HL-60 [11] = experiment: Induction of sterol accumulation in human HL60 cells assessed as holesta-7,24-dien-3beta-ol accumulation at 50 uM incubated for 24 hrs by GC-MS analysis; type: functional, cell-based
HL-60 [12] = experiment: Induction of sterol accumulation in human HL60 cells at 50 uM incubated for 24 hrs by GC-MS analysis; type: functional, cell-based
HL-60 [13] = experiment: Induction of sterol accumulation in human HL60 cells assessed as lathosterol accumulation at 50 uM incubated for 24 hrs by GC-MS analysis; type: functional, cell-based
[14] = target: T1, Lathosterol oxidase (Homo sapiens) (UniProt O75845); experiment: Inhibition of C5-desaturase in human HL60 cells assessed as compound level causing induction of sterol accumulation incubated for 24 hrs by GC-MS analysis; type: cell-based
T1 sequence (whole entry): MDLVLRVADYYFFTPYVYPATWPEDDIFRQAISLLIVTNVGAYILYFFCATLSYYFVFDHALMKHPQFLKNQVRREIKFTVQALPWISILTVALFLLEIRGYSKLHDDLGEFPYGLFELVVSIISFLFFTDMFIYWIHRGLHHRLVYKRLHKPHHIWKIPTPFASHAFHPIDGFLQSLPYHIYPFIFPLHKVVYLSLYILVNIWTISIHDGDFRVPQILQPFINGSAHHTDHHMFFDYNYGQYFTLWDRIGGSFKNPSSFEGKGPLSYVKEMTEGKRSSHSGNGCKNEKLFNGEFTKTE

HL-60 [15] = experiment: Induction of sterol accumulation in human HL60 cells assessed as zymosterol accumulation at 1 uM incubated for 24 hrs by GC-MS analysis; type: functional, cell-based
HL-60 [16] = experiment: Induction of sterol accumulation in human HL60 cells assessed as holesta-7,24-dien-3beta-ol accumulation at 1 uM incubated for 24 hrs by GC-MS analysis; type: functional, cell-based

SMILES	Activity (HL-60 [1])	Activity (HL-60 [2])	IC50 (HL-60 [3])	Activity (HL-60 [4])	also measured
C[C@H](CO)[C@H]1CC[C@H]2[C@@H]3CC=C4C[C@@H](O)CC[C@]4(C)[C@H]3CC[C@]12C	Active	Active	> 50 µM		
C[C@H](/C=C/c1cc[n+](C)cc1)[C@H]1CC[C@H]2C3=CC[C@H]4C[C@@H](O)CC[C@]4(C)[C@H]3CC[C@]12C.[I-]	Active		3 µM	Toxic	
C[C@H](CO)[C@H]1CC[C@H]2C3=CC[C@H]4C[C@@H](O)CC[C@]4(C)[C@H]3CC[C@]12C	Active	Active	> 50 µM		Drug uptake (HL-60 [5]): 1 µM; Drug uptake (HL-60 [6]): 6 µM
CC(=O)O[C@H]1CC[C@@]2(C)[C@@H](CC=C3[C@@H]2CC[C@]2(C)[C@@H]([C@H](C)C(=O)N(C)CC(C)C)CC[C@@H]32)C1		Active	47 µM		Activity (HL-60 [7]): inactive
CCC(=O)N(C)C[C@@H](C)[C@H]1CC[C@H]2C3=CC[C@H]4C[C@@H](OC(C)=O)CC[C@]4(C)[C@H]3CC[C@]12C	Active		20 µM	Toxic	
CC(C)CCC[C@@H](C)[C@H]1CC[C@H]2C3=CC[C@H]4C[C@@H](O)CC[C@]4(C)[C@H]3CC[C@]12C					Activity (HL-60 [8]): inactive
CC(=O)O[C@H]1CC[C@@]2(C)[C@@H](CC=C3[C@@H]2CC[C@]2(C)[C@@H]([C@H](C)C(=O)NO)CC[C@@H]32)C1			18 µM	Toxic	Activity (HL-60 [7]): inactive
CC(=O)O[C@H]1CC[C@@]2(C)[C@@H](CC=C3[C@@H]2CC[C@]2(C)[C@@H]([C@H](C)CO)CC[C@@H]32)C1	Active	Active	> 50 µM		
CCCC(=O)NC[C@@H](C)[C@H]1CC[C@H]2C3=CC[C@H]4C[C@@H](OC(C)=O)CC[C@]4(C)[C@H]3CC[C@]12C	Active		> 50 µM		Activity (HL-60 [9]): Active; Activity (HL-60 [10]): Active; Activity (HL-60 [11]): Active
CC(=O)O[C@H]1CC[C@@]2(C)[C@@H](CC=C3[C@@H]2CC[C@]2(C)[C@@H]([C@H](C)C=O)CC[C@@H]32)C1			> 50 µM		Activity (HL-60 [7]): inactive; Activity (HL-60 [12]): inactive
CC(C)=CCC[C@@H](C)[C@H]1CC[C@H]2C3=C(CC[C@]12C)[C@@]1(C)CC[C@H](O)C[C@@H]1CC3					Activity (HL-60 [8]): inactive
C/C=C/C(=O)OC[C@@H](C)[C@H]1CC[C@H]2C3=CC[C@H]4C[C@@H](OC(C)=O)CC[C@]4(C)[C@H]3CC[C@]12C	Active		10 µM	Toxic	
CC(=O)O[C@H]1CC[C@@]2(C)[C@@H](CC=C3[C@@H]2CC[C@]2(C)[C@@H]([C@H](C)C(=O)O)CC[C@@H]32)C1			> 50 µM		Activity (HL-60 [7]): inactive; Activity (HL-60 [12]): inactive
CN1CCN(CCCN2c3ccccc3Sc3ccc(C(F)(F)F)cc32)CC1 [TRIFLUOPERAZINE HYDROCHLORIDE]	Active	Active	16 µM		Activity (HL-60 [9]): Active; Activity (HL-60 [13]): Active; INH [14]: 1 to 50 µM
CC(=O)O[C@H]1CC[C@@]2(C)[C@@H](CC=C3[C@@H]2CC[C@]2(C)[C@@H]([C@H](C)COC(=O)CN(C)C)CC[C@@H]32)C1	Active		21 µM	Toxic	
CCONC(=O)[C@@H](C)[C@H]1CC[C@H]2C3=CC[C@H]4C[C@@H](OC(C)=O)CC[C@]4(C)[C@H]3CC[C@]12C			18 µM	Toxic	Activity (HL-60 [7]): inactive
CC(=O)O[C@H]1CC[C@@]2(C)[C@@H](CC=C3[C@@H]2CC[C@]2(C)[C@@H]([C@H](C)CN)CC[C@@H]32)C1	Active	Active	> 50 µM		
CC(=O)O[C@H]1CC[C@@]2(C)[C@@H](CC=C3[C@@H]2CC[C@]2(C)[C@@H]([C@H](C)C(=O)N(C)C)CC[C@@H]32)C1			> 50 µM		Activity (HL-60 [7]): inactive; Activity (HL-60 [12]): inactive
CNC(=O)[C@@H](C)[C@H]1CC[C@H]2C3=CC[C@H]4C[C@@H](OC(C)=O)CC[C@]4(C)[C@H]3CC[C@]12C	Active	Active	> 50 µM		
CC(C)=CCC[C@@H](C)[C@H]1CC[C@H]2C3=CC[C@H]4C[C@@H](O)CC[C@]4(C)[C@H]3CC[C@]12C					Activity (HL-60 [8]): inactive
C[C@H](O)[C@H]1CC[C@H]2[C@@H]3CC=C4C[C@@H](O)CC[C@]4(C)[C@H]3CC[C@]12C			> 50 µM		Activity (HL-60 [7]): inactive; Activity (HL-60 [12]): inactive
C[C@H](CCC(=O)N(C)C)[C@H]1CC[C@H]2[C@@H]3CC=C4C[C@@H](O)CC[C@]4(C)[C@H]3CC[C@]12C	Active	Active	> 50 µM		
CCN(CC)CCOc1ccc(C(O)(Cc2ccc(Cl)cc2)c2ccc(C)cc2)cc1 (configuration not stated) [TRIPARANOL]	Active		10 µM	Toxic	Activity (HL-60 [9]): Active; Activity (HL-60 [15]): Active; Activity (HL-60 [16]): Active
CCN(CC)CCO[C@H]1CC[C@@]2(C)C(=CC[C@@H]3[C@@H]2CC[C@]2(C)C(=O)CC[C@@H]32)C1			> 50 µM		
CNC[C@@H](C)[C@H]1CC[C@H]2C3=CC[C@H]4C[C@@H](OC(C)=O)CC[C@]4(C)[C@H]3CC[C@]12C	Active		20 µM	Toxic	Activity (HL-60 [9]): Active; Activity (HL-60 [15]): Active; Activity (HL-60 [16]): Active
CONC(=O)[C@@H](C)[C@H]1CC[C@H]2C3=CC[C@H]4C[C@@H](OC(C)=O)CC[C@]4(C)[C@H]3CC[C@]12C	Active	Active	> 50 µM		
CCCC(=O)N(C)C[C@@H](C)[C@H]1CC[C@H]2C3=CC[C@H]4C[C@@H](OC(C)=O)CC[C@]4(C)[C@H]3CC[C@]12C	Active		13 µM	Toxic	
CCC(=O)NC[C@@H](C)[C@H]1CC[C@H]2C3=CC[C@H]4C[C@@H](OC(C)=O)CC[C@]4(C)[C@H]3CC[C@]12C	Active	Active	> 50 µM		
C/C=C(\C)C(=O)OC[C@@H](C)[C@H]1CC[C@H]2C3=CC[C@H]4C[C@@H](OC(C)=O)CC[C@]4(C)[C@H]3CC[C@]12C	Active	Active	> 50 µM		
